Experimental data published in PMC4891657, “Orexin 2 Receptor Antagonism is Sufficient to Promote NREM and REM Sleep from Mouse to Man” (Scientific Reports, 2016).
Changes are numbered by the printed parent chain.

What was measured:
OX1R [1] = target: T1, OX1R (Rattus norvegicus, UniProt P56718); test: Inhibition of orexin-peptide-A-induced calcium mobilization in CHO cells, rat OX1R; assay type: cell-based
T1 construct: expressed in transfected cells; host or cells: CHO-K1
T1 sequence (P56718 1-416): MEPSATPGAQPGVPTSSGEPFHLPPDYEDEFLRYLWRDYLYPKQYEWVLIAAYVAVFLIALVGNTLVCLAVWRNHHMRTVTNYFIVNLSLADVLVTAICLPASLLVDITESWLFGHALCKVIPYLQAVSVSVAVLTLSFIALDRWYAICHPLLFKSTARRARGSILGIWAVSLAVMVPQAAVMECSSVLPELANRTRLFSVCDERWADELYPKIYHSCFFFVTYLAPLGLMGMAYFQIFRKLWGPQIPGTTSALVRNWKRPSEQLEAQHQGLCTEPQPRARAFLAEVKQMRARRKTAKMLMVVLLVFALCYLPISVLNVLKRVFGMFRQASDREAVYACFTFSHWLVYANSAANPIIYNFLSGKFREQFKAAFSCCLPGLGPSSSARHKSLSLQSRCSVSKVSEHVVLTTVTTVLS
Procedure: (§1) MK-1064 was evaluated for its ability to inhibit orexin-peptide-A-induced calcium mobilization in CHO cell lines separately expressing OX1R and OX2R from mice, rats, rabbits, dogs, rhesus monkeys and humans.
(§2) Binding and functional blockade of OX1R and OX2R with MK-1064 relative to other 2-SORAs and the DORA, MK-6096, were assessed using membranes from Chinese hamster ovary (CHO)-K1 cells (American Type Tissue Collection, Manassas, VA) transfected to express human, mouse, rat, rabbit, dog, or rhesus monkey OX1R or OX2R receptors, as described previously. The kinetics of binding to human OX2R was assessed by radioligand displacement on CHO-K1 cells expressing the receptor. […] The ON rate analysis was performed by presoaking GF/B filters in 0.3% polyethyleneimine (Sigma) using a Skatron 12-well cell harvester and cold buffer at the indicated time points after addition. For OFF rate determination, binding reactions were allowed to proceed to equilibrium and terminated with 1000x [Kd] of unlabeled antagonist and filtered as above at pre-determined time points. Ultima Gold^TM (PerkinElmer 6013327) scintillation cocktail was added to each filter disc and counted on a PerkinElmer TriCarb 2910 scintillation counter. Data were analyzed using GraphPad® Prism v 6.04 (San Diego, CA, USA). The KON rate was determined according to the equation, KON = (KOBS − KOFF)/[ligand].

OX2R [2] = target: T2, OX2R (Canis lupus familiaris, UniProt Q9TUP7); test: Radio-ligand displacement binding, CHO-K1 membranes, dog OX2R; details: for fold OX2R selectivity (Ki): OX1R Ki / OX2R Ki; for Ki: read-out: OX2R affinity (Ki)
T2 construct: expressed in transfected cells; host or cells: CHO-K1
T2 sequence (Q9TUP7 1-444): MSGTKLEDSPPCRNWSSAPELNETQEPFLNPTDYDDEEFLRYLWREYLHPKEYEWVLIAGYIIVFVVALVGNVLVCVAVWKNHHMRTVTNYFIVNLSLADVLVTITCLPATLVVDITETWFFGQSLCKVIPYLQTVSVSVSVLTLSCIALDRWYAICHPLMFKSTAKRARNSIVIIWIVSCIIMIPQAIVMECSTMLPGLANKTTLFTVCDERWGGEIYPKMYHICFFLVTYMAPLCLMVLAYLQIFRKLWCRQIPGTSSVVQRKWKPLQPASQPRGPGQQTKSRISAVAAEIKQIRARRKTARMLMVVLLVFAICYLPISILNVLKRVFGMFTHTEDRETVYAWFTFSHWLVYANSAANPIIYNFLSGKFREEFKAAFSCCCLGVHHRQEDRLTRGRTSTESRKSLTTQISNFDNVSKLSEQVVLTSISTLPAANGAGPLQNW
Procedure: as §1, §2

OX1R [3] = target: T1, OX1R; test: Radio-ligand displacement binding, CHO-K1 membranes, rat OX1R; details: read-out: OX1R affinity (Ki)
Procedure: as §1, §2

OX2R [4] = target: T3, OX2R (Mus musculus, UniProt P58308); test: Inhibition of orexin-peptide-A-induced calcium mobilization in CHO cells, mouse OX2R; assay type: cell-based; details: for fold OX2R selectivity (Kb): OX1R Kb / OX2R Kb
T3 construct: expressed in transfected cells; host or cells: CHO-K1
T3 sequence (P58308 1-460): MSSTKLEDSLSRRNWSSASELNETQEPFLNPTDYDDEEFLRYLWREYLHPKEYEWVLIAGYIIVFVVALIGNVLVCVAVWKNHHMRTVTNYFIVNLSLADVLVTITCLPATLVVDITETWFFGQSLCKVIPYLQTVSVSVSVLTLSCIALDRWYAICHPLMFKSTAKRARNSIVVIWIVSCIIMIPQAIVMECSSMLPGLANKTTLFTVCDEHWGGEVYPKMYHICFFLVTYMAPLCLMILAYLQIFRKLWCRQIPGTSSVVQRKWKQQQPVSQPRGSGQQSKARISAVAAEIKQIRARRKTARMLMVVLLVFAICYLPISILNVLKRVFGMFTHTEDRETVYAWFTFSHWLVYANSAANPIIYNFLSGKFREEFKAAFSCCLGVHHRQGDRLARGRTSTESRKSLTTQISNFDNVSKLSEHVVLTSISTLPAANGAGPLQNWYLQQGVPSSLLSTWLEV
Procedure: as §1, §2

OX2R [5] = target: T2, OX2R; test: Inhibition of orexin-peptide-A-induced calcium mobilization in CHO cells, dog OX2R; assay type: cell-based; details: for fold OX2R selectivity (Kb): OX1R Kb / OX2R Kb
Procedure: as §1, §2

OX2R [6] = target: T4, OX2R (Oryctolagus cuniculus, UniProt G1STQ8); test: Inhibition of orexin-peptide-A-induced calcium mobilization in CHO cells, rabbit OX2R; assay type: cell-based; details: for fold OX2R selectivity (Kb): OX1R Kb / OX2R Kb
T4 sequence (G1STQ8 1-444): T2 sequence (Q9TUP7 1-444) with C12R, P19S, V70I, E217D, A272V, P275S, G277A, F414L, D415E
Procedure: as §1, §2

Structure (SMILES)	Kb (OX1R [1]) [nM]	fold OX2R selectivity (Ki) (OX2R [2])	Ki (OX2R [2]) [nM]	Ki (OX1R [3]) [nM]	Kb (OX2R [4]) [nM]	fold OX2R selectivity (Kb) (OX2R [4])	Kb (OX2R [5]) [nM]	fold OX2R selectivity (Kb) (OX2R [5])	Kb (OX2R [6]) [nM]	fold OX2R selectivity (Kb) (OX2R [6])
COc1ccc(CNC(=O)c2cc(-c3cncc(C)c3)ncc2-c2ccccc2)nc1OC [2-SORA-7]	58300	[2857] fold	0.63	2610	14	[568] fold	13	[>769] fold	22	[764] fold
COc1ccc(CNC(=O)c2cc(-c3cc(Cl)cc(Cl)c3)cnc2-c2cccnc2)cc1OC [2-SORA-18]	1050	[782] fold	0.11	94	24	[9] fold	27	[3] fold	30	[17] fold
COc1ccc(CNC(=O)c2cc(-c3cncc(Cl)c3)cnc2-c2ccccn2)nc1OC [MK-1064, 5″-chloro-N-[(5,6-dimethoxypyridin-2-yl)methyl]-2,2′:5′, 3″-terpyridine-3′-carbo xamide]	7970	[1667] fold	0.78	1070	7	[1471] fold	11	[337] fold	10	[737] fold
COc1ccc(CNC(=O)c2cc(-c3cncc(C)c3)ncc2-c2nccs2)nc1OC [MK-3697]	36400		1.1	2390	12		16		27	
Cc1ccc(-c2ncccn2)c(C(=O)N2C[C@H](COc3ccc(F)cn3)CC[C@H]2C)c1 [MK-6096]	10	[7.5] fold	0.36	2.5	10	[0.9] fold	10	[1.0] fold	16	[0.8] fold
